The values below are quoted from earlier work in patent US8871712B2, “Somatostatin analogue formulations” (Camurus AB, priority 2005, dated 2014).

The conditions of the data set: in vivo.

Consider `C[C@@H](O)[C@@H]1NC(=O)[C@H](CCCCN)NC(=O)[C@@H](Cc2c[nH]c3ccccc23)NC(=O)[C@H](Cc2ccccc2)NC(=O)[C@@H](NC(=O)[C@H](N)Cc2ccccc2)CSSC[C@@H](C(=O)N[C@H](CO)[C@@H](C)O)NC1=O` [Octreotide, D-Phe-Cys-Phe-D-Trp-Lys-Thr-Cys-Thr-ol (2-7 disulphide bridge)], for which the Terminal half-life result was “around 1.7 hours”.
